From US12661345B2, “Compositions for the treatment of hypertension” (The George Institute for Global Health, priority 2017, dated 2026)

Test system: participants with migraine
Assay: Safety: serious adverse events and adverse events of special interest in the 3×3 factorial trial
[1] = Anytime between Week 0 to Week 12, % of participants
[2] = Anytime between Week 0 to Week 12, n/N participants
[3] = Randomization, % of participants
[4] = Randomization, n/N participants

Source text: Tolerability: • a. Difference between groups in potentially related side-effects (dizziness, blurred vision, syncope/collapse/fall, ankle edema, skin rash, itching, gout, hyperkalemia, hypokalemia, hyponatremia, myalgia, insomnia, nightmares, rebound hypertension) • b. Difference between groups in participant withdrawals from treatment • 2. Safety: Percentage with any severe adverse event (SAE) • 3.
All participants reported SAEs and adverse events of special interest (AESI) from the time of informed consent until the end of the follow-up period and reported in the case report. AESIs included: • Dizziness • Hypotension • Pedal Edema • Headache • Muscle cramps • Bradycardia • Flushing • Hypersensitivity reactions (skin rashes, itching) • Gastrointestinal complaints • Myalgia • Syncope/Collapse/Fall • Gout • Insomnia • Nightmares • Rebound hypertension • Chest tightness/pain • Tremor/shaking • Irregular heartbeat/tachycardia Statistical Methods Statistical & Analytical Plans

CC(C)NCC(O)COc1cccc2ccccc12 (stereo not shown) [Propranolol, propranolol]
9/10: Headache [2] | Headache (Week 4, n/N participants) | Headache (Week 13, n/N participants)
(20.0%): Myalgia [1] | Gastrointestinal complaints (Week 4, % of participants) | Insomnia (Week 4, % of participants) | Insomnia (Week 12, % of participants) | Muscle cramps (Week 12, % of participants) | Gastrointestinal complaints (Week 13, % of participants) | Muscle cramps (Week 13, % of participants) | Myalgia (Week 13, % of participants) | Rebound hypertension (Week 16, % of participants)
10/10: Headache [4] | Headache (Week 16, n/N participants)
2/10: Myalgia [2] | Gastrointestinal complaints (Week 4, n/N participants) | Insomnia (Week 4, n/N participants) | Insomnia (Week 12, n/N participants) | Muscle cramps (Week 12, n/N participants) | Gastrointestinal complaints (Week 13, n/N participants) | Muscle cramps (Week 13, n/N participants) | Myalgia (Week 13, n/N participants) | Rebound hypertension (Week 16, n/N participants)
0/10: Subjects with any serious adverse event (SAE) in 12 weeks (n/N) (12 weeks) | Any SAEs [2] | Falls [2] | Flushing [2] | Gout [2] | Pedal edema [2] | Any SAEs since the last visit? [4] | Bradycardia [4] | Falls [4] | Gastrointestinal complaints [4] | Gout [4] | Insomnia [4] | Muscle cramps [4] | Myalgia [4] | Nightmares [4] | Pedal edema [4] | Syncope [4] | Any SAEs since the last visit? (Week 4, n/N participants) | Bradycardia (Week 4, n/N participants) | Falls (Week 4, n/N participants) | Flushing (Week 4, n/N participants) | Gout (Week 4, n/N participants) | Nightmares (Week 4, n/N participants) | Pedal edema (Week 4, n/N participants) | Syncope (Week 4, n/N participants) | Any SAEs since the last visit? (Week 8, n/N participants) | Bradycardia (Week 8, n/N participants) | Falls (Week 8, n/N participants) | Flushing (Week 8, n/N participants) | Gastrointestinal complaints (Week 8, n/N participants) | Gout (Week 8, n/N participants) | Muscle cramps (Week 8, n/N participants) | Nightmares (Week 8, n/N participants) | Pedal edema (Week 8, n/N participants) | Syncope (Week 8, n/N participants) | Any SAEs since the last visit? (Week 12, n/N participants) | Falls (Week 12, n/N participants) | Flushing (Week 12, n/N participants) | Gout (Week 12, n/N participants) | Myalgia (Week 12, n/N participants) | Pedal edema (Week 12, n/N participants) | Any SAEs since the last visit? (Week 13, n/N participants) | Bradycardia (Week 13, n/N participants) | Falls (Week 13, n/N participants) | Flushing (Week 13, n/N participants) | Gout (Week 13, n/N participants) | Insomnia (Week 13, n/N participants) | Nightmares (Week 13, n/N participants) | Rebound hypertension (Week 13, n/N participants) | Syncope (Week 13, n/N participants) | Any SAEs since the last visit? (Week 16, n/N participants) | Bradycardia (Week 16, n/N participants) | Falls (Week 16, n/N participants) | Flushing (Week 16, n/N participants) | Gastrointestinal complaints (Week 16, n/N participants) | Gout (Week 16, n/N participants) | Insomnia (Week 16, n/N participants) | Myalgia (Week 16, n/N participants) | Nightmares (Week 16, n/N participants) | Pedal edema (Week 16, n/N participants) | Syncope (Week 16, n/N participants)
3/10: Gastrointestinal complaints [2] | Muscle cramps [2] | Insomnia (Week 8, n/N participants)
(80.0%): Headache (Week 8, % of participants) | Headache (Week 12, % of participants)
(30.0%): Gastrointestinal complaints [1] | Muscle cramps [1] | Insomnia (Week 8, % of participants)
0.0%: Subjects with any serious adverse event (SAE) in 12 weeks (percent) (12 weeks)
(10.0%): Bradycardia [1] | Nightmares [1] | Syncope [1] | Flushing [3] | Muscle cramps (Week 4, % of participants) | Myalgia (Week 4, % of participants) | Myalgia (Week 8, % of participants) | Bradycardia (Week 12, % of participants) | Gastrointestinal complaints (Week 12, % of participants) | Nightmares (Week 12, % of participants) | Syncope (Week 12, % of participants) | Pedal edema (Week 13, % of participants) | Irregular heartbeat/tachycardia (Week 16, % of participants) | Muscle cramps (Week 16, % of participants)
(90.0%): Headache [1] | Headache (Week 4, % of participants) | Headache (Week 13, % of participants)
(0.0%): Any SAEs [1] | Falls [1] | Flushing [1] | Gout [1] | Pedal edema [1] | Any SAEs since the last visit? [3] | Bradycardia [3] | Falls [3] | Gastrointestinal complaints [3] | Gout [3] | Insomnia [3] | Muscle cramps [3] | Myalgia [3] | Nightmares [3] | Pedal edema [3] | Syncope [3] | Any SAEs since the last visit? (Week 4, % of participants) | Bradycardia (Week 4, % of participants) | Falls (Week 4, % of participants) | Flushing (Week 4, % of participants) | Gout (Week 4, % of participants) | Nightmares (Week 4, % of participants) | Pedal edema (Week 4, % of participants) | Syncope (Week 4, % of participants) | Any SAEs since the last visit? (Week 8, % of participants) | Bradycardia (Week 8, % of participants) | Falls (Week 8, % of participants) | Flushing (Week 8, % of participants) | Gastrointestinal complaints (Week 8, % of participants) | Gout (Week 8, % of participants) | Muscle cramps (Week 8, % of participants) | Nightmares (Week 8, % of participants) | Pedal edema (Week 8, % of participants) | Syncope (Week 8, % of participants) | Any SAEs since the last visit? (Week 12, % of participants) | Falls (Week 12, % of participants) | Flushing (Week 12, % of participants) | Gout (Week 12, % of participants) | Myalgia (Week 12, % of participants) | Pedal edema (Week 12, % of participants) | Any SAEs since the last visit? (Week 13, % of participants) | Bradycardia (Week 13, % of participants) | Falls (Week 13, % of participants) | Flushing (Week 13, % of participants) | Gout (Week 13, % of participants) | Insomnia (Week 13, % of participants) | Nightmares (Week 13, % of participants) | Rebound hypertension (Week 13, % of participants) | Syncope (Week 13, % of participants) | Any SAEs since the last visit? (Week 16, % of participants) | Bradycardia (Week 16, % of participants) | Falls (Week 16, % of participants) | Flushing (Week 16, % of participants) | Gastrointestinal complaints (Week 16, % of participants) | Gout (Week 16, % of participants) | Insomnia (Week 16, % of participants) | Myalgia (Week 16, % of participants) | Nightmares (Week 16, % of participants) | Pedal edema (Week 16, % of participants) | Syncope (Week 16, % of participants)
(100.0%): Headache [3] | Headache (Week 16, % of participants)
1/10: Bradycardia [2] | Nightmares [2] | Syncope [2] | Flushing [4] | Muscle cramps (Week 4, n/N participants) | Myalgia (Week 4, n/N participants) | Myalgia (Week 8, n/N participants) | Bradycardia (Week 12, n/N participants) | Gastrointestinal complaints (Week 12, n/N participants) | Nightmares (Week 12, n/N participants) | Syncope (Week 12, n/N participants) | Pedal edema (Week 13, n/N participants) | Irregular heartbeat/tachycardia (Week 16, n/N participants) | Muscle cramps (Week 16, n/N participants)
8/10: Headache (Week 8, n/N participants) | Headache (Week 12, n/N participants)
4/10: Insomnia [2]
(40.0%): Insomnia [1]
